Values quoted from earlier work, collected in patent US6391342B1, “Pharmaceutical formulation comprising a 2- [(2-pyridinyl) methyl] sulfinyl benzimidazole having anti-ulcer activity and a process for the preparation of such formulation” (A/S GEA Farmaceutisk Fabrik, priority 1998, dated 2002).
Like-named read-outs stand apart in the source and are kept apart here.

stability to acids (acids): sensible to acids
solubility (in alkaline solutions): very soluble
solubility (in water): only slightly soluble
Structure (SMILES): COc1ccc2[nH]c([S+]([O-])Cc3ncc(C)c(OC)c3C)nc2c1 (stereo not drawn) [omeprazole, 5-methoxy-2-[[(4-methoxy-3,5-dimethyl-2-pyridinyl)methyl]sulfinyl]-1H-benzimidazole]
